# Measurements taken from patent publication US7008937B2, “Porphyrins and metalloporphyrins for inhibiting heme iron uptake” (Frontier Scientific, Inc., priority 2003, dated 2006).
# Read-outs that look alike come from different tables or passages of the source.
# Legend:
# rat duodenum = details: for inhibition of incorporation of radiolabeled heme into the animals: 4 animals (FIG. 8)
# Excerpt: In this assay, Wistar rats were first anesthetized with pentobarbital. Wistar rats are from a strain originally developed at the Wistar Institute and commonly used all over the world for research. Following anesthesia, a midline incision was made in each of the rats. The duodenum of each animal was isolated between the pylorus and the ligament of Trietz by umbilical tape. The bile duct of each animal was then identified and ligated. Following this, a syringe was passed through the pylorus of each animal, and one ml of radiolabeled heme solution was introduced into the duodenum. The heme solutions used contained either only heme, or additionally included an appropriate concentration of an inhibitor to be evaluated.
# Following introduction of the heme or heme/inhibitor solution, the duodenal loop of each animal was tied off. Heme absorption was allowed to continue for a period of 10 minutes. Following this absorption period, the duodenal loop of each rat was removed and the animal was killed. The rat carcass was counted in a whole body counter to determine the amount of radiolabeled heme isotope absorbed into the body from the duodenum.
# The Wistar rats were divided into three groups of 4 animals each. Group 1 was used as a control group.
# In this experiment, 5 animals were utilized in each of the control and testing groups. The incubation time period was extended to be fifteen minutes. […] The points seen in FIG. 9 represent the measurements obtained individual rats, while the shaded bars represent the mean value for each group of animals.
# IEC-6 cells [1] = experiment: Inhibition of in vitro uptake of radiolabeled iron from heme in IEC-6 cells
# Protocol: In a first assay, confluent monolayers of IEC-6 cells were incubated with radioactive iron-labeled heme. […] In this assay, the heme had been previously solubilized in taurodeoxycholate micelles. Twelve-well tissue culture plates were used with 1 ml of phosphate-buffered saline (or “PBS”) containing Ca, Mg and glucose. Cells were incubated with the heme solution and a designated inhibitor for times indicated at a temperature of 37° C.
# After incubation, the cells were washed with 1 ml of the same buffer at 4° C. three times. The cells were then solubilized by the addition of 1 ml of water and sonicated for 10 minutes in a Branson sonicator. The cells were removed by titration and transferred to 75 ml tubes. Subsequently, the radioactivity of the cells was determined using a gamma counter.
# For an initial screen, each compound was added at a concentration of 800 micromolar, and given a timed uptake period of over 60 minutes. […] The concentration of inhibitor required to get a 50% decrease in heme uptake inhibition counts was then determined.
# [2] = 50 micromolar in duodenal loop, 15 minutes
# Protocol: Subsequently, cardiac punctures were performed on the rats, and between 0.45 and 1.3 ml of blood were collected from each. The plasma of the blood samples was separated and precipitated overnight with 10% trichloroacetic acid.
# K562 cells = tested on: K562 cells
# Excerpt: In a next set of experiments, K562 cells were used to test toxicity of the porphyrins of the invention. K562 cells are erythroleukemia cells from a cell line derived from a chronic myeloid leukemia patient in blast crisis. K562 cells were selected for this testing based on their ability to grow in suspension. This characteristic renders cell counting more reliable.
# IEC-6 cells [3] = tested on: IEC-6 cells
# [4] = 800 μM
# Protocol: TMP (free base porphyrin) was used at 160 and 800 μM concentrations in the taurodeoxycholate-solubilized heme solution.
# [5] = read-out: concentration giving about 50% inhibition of heme iron uptake, titration with increasing amounts of inhibitor, uptake determined after 30 minutes
# [6] = one of two cell lines (summary)
smiles,measurement,setting,value
"C[n+]1ccc(-c2c3nc(c(-c4cc[n+](C)cc4)c4ccc([n-]4)c(-c4cc[n+](C)cc4)c4nc(c(-c5cc[n+](C)cc5)c5ccc2[n-]5)C=C4)C=C3)cc1.[Cr+3] [Cr-TMP, Cr (III) meso-tetra(N-methyl-4-pyridyl) porphine]",inhibition of incorporation of radiolabeled heme into the animals,"rat duodenum; 50 μM, 10 minutes",almost complete inhibition
same,inhibition of incorporation of radiolabeled heme into the animals,"rat duodenum; 200 μM, 10 minutes",almost complete inhibition
same,in vivo inhibition of heme-iron uptake (conclusion),"rat duodenum; about 50 μM, 15 minutes (FIG. 9)",feasible in vivo
same,concentration range in which active as inhibitor,IEC-6 cells [1],low micromolar range
same,toxicity to the cell monolayer under the inverted microscope,"IEC-6 cells [1]; 800 μM, 60 minutes",No toxicity to the cell monolayer was observed
same,"inhibition of heme iron uptake, timed uptake","IEC-6 cells [1]; 800 μM, over 60 minutes, 37 degrees (FIG. 3)",inhibition to approximately background
same,inhibitory ability compared with the free base porphyrin,IEC-6 cells [1]; metal chelates of TMP,effective to still another order of magnitude
same,IC50,IEC-6 cells [1]; [5],~4 µM
same,absorption across the intestinal wall,[2],essentially no absorption
same,"plasma level, bounded by limit of sensitivity of the measurement",[2],< 40 nM
same,difference in plasma absorbance between control and treated groups,[2]; 447 nm,no difference
same,growth rate of the cells,K562 cells; 50 micromolar in growth media (FIG. 10),not decreased
same,cell growth at higher concentrations,"K562 cells; concentrations above 50 micromolar, growth slowed, cells remained viable",Some inhibition of cell growth
same,toxicity at a high concentration relative to contemplated therapeutic dosage,K562 cells; [6],no toxicity
same,toxicity after prolonged exposure,K562 cells; two weeks of exposure,No toxicity
same,growth rate or extent,"IEC-6 cells [3]; 50 μM, up to 7 days' exposure (FIG. 11)",no decrease in growth rate or extent
same,concentration up to which no toxicity was observed,IEC-6 cells [3]; day 4 (FIG. 12),about 100 μM
same,toxicity at a high concentration relative to contemplated therapeutic dosage,IEC-6 cells [3]; [6],no toxicity
"C[n+]1ccc(-c2c3nc(c(-c4cc[n+](C)cc4)c4ccc([nH]4)c(-c4cc[n+](C)cc4)c4nc(c(-c5cc[n+](C)cc5)c5ccc2[nH]5)C=C4)C=C3)cc1 [TMP, meso-tetra(N-methyl-4-pyridyl) porphine]",variation of inhibition in the group of animals,"rat duodenum; 800 μM, 10 minutes",considerable variation in inhibition
same,inhibition of incorporation of iron from heme into the body of the animal,"rat duodenum; 160 and 800 μM in heme solution, 10 minutes (FIG. 7)",inhibition of iron uptake was observed
same,IC50,"IEC-6 cells [1]; read-out: concentration at which heme uptake is inhibited (as seen in FIGS. 2 and 4), summary of Tables 1 and 2",~750 µM
same,IC50,IEC-6 cells [1]; [5],~100 µM
same,precipitation in the heme solution,[4],slight precipitate
